Source: ChEMBL document CHEMBL3352479, “Discovery and SAR study of 2-(4-pyridylamino)thieno[3,2-d]pyrimidin-4(3H)-ones as soluble and highly potent PDE7 inhibitors” (Bioorg Med Chem Lett, 2015)
≈ marks a conversion by molar mass, not a printed value.

Assays:
[1] = biological target: High affinity 3',5'-cyclic-AMP phosphodiesterase 7A (Homo sapiens, UniProt Q13946); assay: Inhibition of PDE7A (unknown origin)
[2] = biological target: 3',5'-cyclic-AMP phosphodiesterase 4B (Homo sapiens, UniProt Q07343); assay: Inhibition of PDE4B (unknown origin)
Sequence of 3',5'-cyclic-AMP phosphodiesterase 4B (Q07343 whole entry): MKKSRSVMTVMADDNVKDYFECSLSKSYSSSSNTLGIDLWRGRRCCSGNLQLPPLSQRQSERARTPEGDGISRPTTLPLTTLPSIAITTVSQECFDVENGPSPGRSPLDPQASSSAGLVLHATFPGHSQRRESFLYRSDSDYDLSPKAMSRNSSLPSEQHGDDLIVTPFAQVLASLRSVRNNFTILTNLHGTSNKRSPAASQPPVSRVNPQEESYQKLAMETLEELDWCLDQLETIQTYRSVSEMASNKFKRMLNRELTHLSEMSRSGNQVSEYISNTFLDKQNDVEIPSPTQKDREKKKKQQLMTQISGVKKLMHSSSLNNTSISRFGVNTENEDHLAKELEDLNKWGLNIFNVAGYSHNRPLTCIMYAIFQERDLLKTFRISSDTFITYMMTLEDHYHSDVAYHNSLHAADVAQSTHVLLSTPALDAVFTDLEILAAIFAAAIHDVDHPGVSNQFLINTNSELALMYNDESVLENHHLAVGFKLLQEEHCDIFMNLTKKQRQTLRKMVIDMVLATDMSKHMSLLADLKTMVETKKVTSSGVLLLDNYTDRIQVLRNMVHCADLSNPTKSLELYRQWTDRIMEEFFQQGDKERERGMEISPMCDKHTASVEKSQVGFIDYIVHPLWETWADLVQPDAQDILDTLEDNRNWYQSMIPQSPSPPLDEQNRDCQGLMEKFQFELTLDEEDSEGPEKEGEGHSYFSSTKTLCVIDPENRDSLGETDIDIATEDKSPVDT

[3] = Solubility in phosphate buffer at pH 6.8; format: physicochemical
[4] = system: Lymphocyte; assay: Inhibition of IL2 production from mouse activated lymphocytes; format: functional, cell-based
[5] = biological target: cGMP-inhibited 3',5'-cyclic phosphodiesterase 3A (Homo sapiens, UniProt Q14432); assay: Inhibition of PDE3A (unknown origin)
Sequence of cGMP-inhibited 3',5'-cyclic phosphodiesterase 3A (Q14432 whole entry): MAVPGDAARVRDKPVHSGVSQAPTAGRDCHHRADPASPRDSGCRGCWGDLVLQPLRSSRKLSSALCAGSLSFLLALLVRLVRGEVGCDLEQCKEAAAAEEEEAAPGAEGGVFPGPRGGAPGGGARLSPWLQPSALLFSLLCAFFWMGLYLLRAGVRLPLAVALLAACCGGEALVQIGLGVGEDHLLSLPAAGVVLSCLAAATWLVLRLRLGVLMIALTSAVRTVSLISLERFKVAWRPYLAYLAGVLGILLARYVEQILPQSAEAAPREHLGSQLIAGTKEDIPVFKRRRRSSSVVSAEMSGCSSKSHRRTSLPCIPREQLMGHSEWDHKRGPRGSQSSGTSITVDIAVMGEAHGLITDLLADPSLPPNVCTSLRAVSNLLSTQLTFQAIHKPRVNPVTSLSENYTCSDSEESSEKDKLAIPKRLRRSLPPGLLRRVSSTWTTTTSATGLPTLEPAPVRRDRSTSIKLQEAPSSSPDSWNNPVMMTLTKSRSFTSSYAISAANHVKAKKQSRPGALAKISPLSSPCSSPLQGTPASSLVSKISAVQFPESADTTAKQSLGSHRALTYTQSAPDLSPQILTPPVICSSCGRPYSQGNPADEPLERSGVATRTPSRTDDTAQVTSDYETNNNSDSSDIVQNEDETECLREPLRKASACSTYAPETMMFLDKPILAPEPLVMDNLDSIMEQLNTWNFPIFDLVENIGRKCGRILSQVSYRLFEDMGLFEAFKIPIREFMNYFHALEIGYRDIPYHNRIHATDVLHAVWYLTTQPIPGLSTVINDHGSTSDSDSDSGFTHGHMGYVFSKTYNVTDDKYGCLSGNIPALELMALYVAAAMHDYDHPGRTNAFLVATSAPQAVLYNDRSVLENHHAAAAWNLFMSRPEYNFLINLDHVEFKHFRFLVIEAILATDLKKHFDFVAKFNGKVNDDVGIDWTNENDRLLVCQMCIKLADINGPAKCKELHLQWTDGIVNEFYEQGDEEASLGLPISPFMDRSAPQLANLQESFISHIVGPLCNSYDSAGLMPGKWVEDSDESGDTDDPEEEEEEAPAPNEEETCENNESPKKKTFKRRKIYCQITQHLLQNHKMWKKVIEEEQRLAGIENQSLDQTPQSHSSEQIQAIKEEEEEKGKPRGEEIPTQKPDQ

[6] = biological target: cGMP-specific 3',5'-cyclic phosphodiesterase (Homo sapiens, UniProt O76074); assay: Inhibition of PDE5A (unknown origin)

Sequence of High affinity 3',5'-cyclic-AMP phosphodiesterase 7A (Q13946 whole entry): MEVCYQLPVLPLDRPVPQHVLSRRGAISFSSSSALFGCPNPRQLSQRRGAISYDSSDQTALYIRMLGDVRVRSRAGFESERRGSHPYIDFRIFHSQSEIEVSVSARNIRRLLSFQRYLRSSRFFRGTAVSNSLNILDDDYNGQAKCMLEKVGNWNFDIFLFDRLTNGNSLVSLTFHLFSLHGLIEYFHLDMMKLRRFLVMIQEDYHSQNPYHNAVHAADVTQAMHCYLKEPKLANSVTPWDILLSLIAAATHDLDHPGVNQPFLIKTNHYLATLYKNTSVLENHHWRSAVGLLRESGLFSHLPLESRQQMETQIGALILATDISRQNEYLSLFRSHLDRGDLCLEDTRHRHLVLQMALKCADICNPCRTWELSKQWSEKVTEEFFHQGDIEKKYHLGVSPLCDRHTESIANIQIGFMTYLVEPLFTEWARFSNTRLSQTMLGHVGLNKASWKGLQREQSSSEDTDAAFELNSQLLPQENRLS

IC50 [1] [nM]	IC50 [2] [nM]	solubility [3] [µg/mL]	IC50 [4] [nM]	IC50 [5] [nM]	IC50 [6] [nM]	SMILES
0.32	20	28.1 (≈ 60.2 µM)	< 100	17	2900	CCn1c(Nc2ccncc2F)nc2c(C3CCCN(C(=O)C4(C#N)CC4)C3)csc2c1=O (stereo not given)
290	7400	19.5 (≈ 71.9 µM)	–	–	–	CCn1c(Nc2ccccc2)nc2ccsc2c1=O
–	–	12.1 (≈ 45.9 µM)	–	–	–	CCn1c(NC2CCCC2)nc2ccsc2c1=O
2300	–	0.4 (≈ 1.35 µM)	–	–	–	CCn1c(Nc2ccccc2C#N)nc2ccsc2c1=O
25	670	3.5 (≈ 11.1 µM)	–	–	–	CCn1c(Nc2ccncc2F)nc2c(C#N)csc2c1=O
88	4300	10.1 (≈ 35.4 µM)	–	–	–	CCn1c(Nc2ccccc2C)nc2ccsc2c1=O
> 1000	–	65.5 (≈ 230 µM)	–	–	–	CCn1c(Nc2cccc(C)c2)nc2ccsc2c1=O
3.9	180	31.3 (≈ 89.8 µM)	480	–	–	CCn1c(Nc2ccncc2F)nc2c(CCCO)csc2c1=O
60	5300	120 (≈ 413 µM)	–	–	–	CCn1c(Nc2ccncc2F)nc2ccsc2c1=O
> 1000	–	1.9 (≈ 6.35 µM)	–	–	–	CCc1ccccc1Nc1nc2ccsc2c(=O)n1CC
0.68	280	48.9 (≈ 113 µM)	160	29	520	CCn1c(Nc2ccncc2F)nc2c(C3CCCN(C(=O)OC)C3)csc2c1=O (stereo not given)
2.1	56	17.9 (≈ 51.4 µM)	260	–	–	CCn1c(Nc2ccncc2F)nc2c(C(C)(C)O)csc2c1=O
8.7	610	5.4 (≈ 16.1 µM)	1700	–	–	CCn1c(Nc2ccncc2F)nc2c(C(C)O)csc2c1=O (stereo not given)
1.2	180	22.7 (≈ 47.9 µM)	130	37	> 10000	CCn1c(Nc2ccncc2F)nc2c(C3CCCN(C(=O)C(C)(C)CO)C3)csc2c1=O (stereo not given)
630	30000	111 (≈ 408 µM)	–	–	–	CCn1c(Nc2ccncc2)nc2ccsc2c1=O
> 1000	–	84 (≈ 294 µM)	–	–	–	CCn1c(Nc2ccc(C)cc2)nc2ccsc2c1=O
1.1	310	0.9 (≈ 2.09 µM)	–	–	–	CCn1c(Nc2ccncc2F)nc2c(C3CCN(C(=O)OC)CC3)csc2c1=O
61	2700	26.1 (≈ 90.2 µM)	–	–	–	CCn1c(Nc2ccccc2F)nc2ccsc2c1=O
> 1000	–	41.6 (≈ 153 µM)	–	–	–	CCn1c(Nc2cccnc2)nc2ccsc2c1=O
41	3000	6.3 (≈ 20.6 µM)	–	–	–	CCn1c(Nc2ccccc2Cl)nc2ccsc2c1=O
